These results are taken from patent publication US8530461B2 (Boehringer Ingelheim International GmbH, priority 2011, dated 2013).

pIC50: −log10 of the molar value.

The target in one test is T1, human ACC2 (Homo sapiens, UniProt O00763).
T1 construct: made in house; host or cells: insect cells (baculoviral expression system)
T1 sequence (O00763 129-2458 limits assumed): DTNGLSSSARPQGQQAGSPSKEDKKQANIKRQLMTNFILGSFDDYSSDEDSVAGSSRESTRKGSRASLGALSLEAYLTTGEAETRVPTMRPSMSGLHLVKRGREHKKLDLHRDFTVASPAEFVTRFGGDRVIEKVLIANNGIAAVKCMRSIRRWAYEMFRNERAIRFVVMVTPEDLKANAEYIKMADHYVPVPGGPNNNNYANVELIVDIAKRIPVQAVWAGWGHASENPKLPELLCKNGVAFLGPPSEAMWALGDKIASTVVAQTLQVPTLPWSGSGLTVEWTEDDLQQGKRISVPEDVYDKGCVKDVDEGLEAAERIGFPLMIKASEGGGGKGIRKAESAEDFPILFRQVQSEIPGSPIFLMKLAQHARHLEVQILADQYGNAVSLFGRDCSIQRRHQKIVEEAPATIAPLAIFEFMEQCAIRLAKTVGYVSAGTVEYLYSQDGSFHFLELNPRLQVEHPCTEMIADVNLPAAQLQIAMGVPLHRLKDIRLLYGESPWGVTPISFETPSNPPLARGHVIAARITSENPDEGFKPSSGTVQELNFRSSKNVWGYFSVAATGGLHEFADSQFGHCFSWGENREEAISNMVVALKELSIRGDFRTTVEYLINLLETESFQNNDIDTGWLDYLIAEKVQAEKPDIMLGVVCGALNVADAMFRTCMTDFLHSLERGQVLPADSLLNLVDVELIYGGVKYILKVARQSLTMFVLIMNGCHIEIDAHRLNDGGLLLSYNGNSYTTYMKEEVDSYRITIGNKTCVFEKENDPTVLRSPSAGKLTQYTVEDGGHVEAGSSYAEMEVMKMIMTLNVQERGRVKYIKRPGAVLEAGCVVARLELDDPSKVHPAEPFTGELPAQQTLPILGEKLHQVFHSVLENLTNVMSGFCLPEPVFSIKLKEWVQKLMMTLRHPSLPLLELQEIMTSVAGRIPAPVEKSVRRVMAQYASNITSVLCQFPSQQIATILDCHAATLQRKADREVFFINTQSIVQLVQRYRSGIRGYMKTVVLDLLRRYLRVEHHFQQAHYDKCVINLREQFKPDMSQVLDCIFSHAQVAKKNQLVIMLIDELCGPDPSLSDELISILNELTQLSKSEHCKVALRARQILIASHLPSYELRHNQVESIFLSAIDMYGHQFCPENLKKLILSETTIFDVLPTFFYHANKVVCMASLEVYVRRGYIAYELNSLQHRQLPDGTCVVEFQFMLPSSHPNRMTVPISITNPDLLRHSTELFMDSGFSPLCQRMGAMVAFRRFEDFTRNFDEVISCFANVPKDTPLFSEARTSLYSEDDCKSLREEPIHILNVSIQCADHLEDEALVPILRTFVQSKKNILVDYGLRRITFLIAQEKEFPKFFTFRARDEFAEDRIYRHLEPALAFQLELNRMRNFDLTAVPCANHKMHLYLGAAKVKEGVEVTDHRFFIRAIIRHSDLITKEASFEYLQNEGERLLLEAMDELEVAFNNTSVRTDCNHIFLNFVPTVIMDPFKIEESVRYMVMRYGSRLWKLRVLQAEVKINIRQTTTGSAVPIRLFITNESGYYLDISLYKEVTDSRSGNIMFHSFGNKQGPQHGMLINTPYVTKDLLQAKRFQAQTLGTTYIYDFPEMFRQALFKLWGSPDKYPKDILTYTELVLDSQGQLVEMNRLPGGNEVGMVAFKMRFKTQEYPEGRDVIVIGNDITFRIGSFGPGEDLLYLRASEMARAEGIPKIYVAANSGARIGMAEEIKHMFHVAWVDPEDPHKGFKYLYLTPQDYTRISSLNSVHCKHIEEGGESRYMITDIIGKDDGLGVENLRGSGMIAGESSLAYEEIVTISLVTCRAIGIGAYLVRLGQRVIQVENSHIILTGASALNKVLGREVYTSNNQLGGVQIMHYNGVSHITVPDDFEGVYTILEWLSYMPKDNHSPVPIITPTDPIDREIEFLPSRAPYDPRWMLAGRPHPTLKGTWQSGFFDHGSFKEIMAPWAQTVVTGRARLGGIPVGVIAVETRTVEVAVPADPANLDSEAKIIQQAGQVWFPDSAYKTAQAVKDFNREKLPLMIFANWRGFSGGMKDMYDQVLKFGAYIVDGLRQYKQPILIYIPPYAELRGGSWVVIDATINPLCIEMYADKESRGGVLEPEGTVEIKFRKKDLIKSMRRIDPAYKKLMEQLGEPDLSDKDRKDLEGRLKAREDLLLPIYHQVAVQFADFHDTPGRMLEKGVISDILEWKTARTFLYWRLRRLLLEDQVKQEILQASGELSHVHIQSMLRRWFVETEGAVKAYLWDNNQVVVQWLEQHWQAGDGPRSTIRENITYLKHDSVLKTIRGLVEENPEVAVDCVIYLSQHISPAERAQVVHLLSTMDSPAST
Briefly: ACC2 assay, spectrophotometric 384 well assay (NADH-linked, coupled lactate dehydrogenase/pyruvate kinase). The class given is biochemical. Particulars: ACC2 assay; human ACC2 construct lacking 128 N-terminal amino acids; 25° C., 340 nm, 15 minutes; read-out: IC50. The protocol:
Spectrophotometric 384 Well Assay
Malonyl CoA formation by acetyl CoA carboxylases is stoichometrically linked to the consumption of ATP. ACC2 activity is measured in a NADH-linked kinetic method measuring ADP generated during the ACC reaction using a coupled lactate dehydrogenase/pyruvate kinase reaction.
For biological testing, a human ACC2 construct which lacks the 128 amino acids at the N-terminus for increased solubility (nt 385-6966 in Genbank entry AJ575592) is cloned. The protein is then expressed in insect cells using a baculoviral expression system. Protein purification is performed by anion exchange.
All compounds are dissolved in dimethyl sulfoxide (DMSO) to a concentration of 10 mM.
Assay reactions are then carried out in 384-well plates, with hACC2 in an appropriate dilution and at final assay concentrations (f.c.) of 100 mM Tris (pH 7.5), 10 mM trisodium citrate, 25 mM KHCO3, 10 mM MgCl2, 0.5 mg/ml BSA, 3.75 mM reduced L-glutathione, 15 U/ml lactate dehydrogenase, 0.5 mM phosphoenolpyruvate, 15 U/ml pyruvate kinase, compounds at different concentrations at final DMSO concentrations of 1%.
The enzymatic reaction is then started by addition of a mixture of NADH, acetyl Coenzyme A (both […].) and ATP (500 uM f.c.). The decrease of the optical density (slope S) is then determined at 25° C. at a wavelength of 340 nm over 15 minutes in a spectrophotometric reader.
Each assay microtiter plate contains wells with vehicle instead of compound as controls for the non-inhibited enzyme (100% CTL; ‘HIGH’) and wells without acetyl-CoA as controls for non-specific NADH degradation (0% CTL; ‘LOW’).
The slope S is used for calculation of % CTL=(S(compound)−S(‘LOW’))/(S(‘HIGH’)−S(‘LOW’))100. Compounds will give values between 100% CTL (no inhibition) and 0% CTL (complete inhibition).
For IC50 value determination, the sample slope in the presence of the test compound after subtraction of the low controls (S(compound)−S(‘LOW’)) are used.
An IC50 value is derived from the compound slopes at different dosages after subtraction of the low controls (S(compound)−S(‘LOW’)) by non-linear regression curve fitting (equation y=(A+((B−A)/(1+((C/x)^D))))).
`CCOc1ccc(OC2CN(c3ccc([C@H](C)NC(=O)C4(C)CCC4)cc3)C2)cc1` [Example 1.1, (S)-1-Methyl-cyclobutanecarboxylic acid (1-{4-[3-(4-ethoxy-phenoxy)-azetidin-1-yl]-phenyl}-ethyl)-amide]: the pIC50 is 5.59.
For the compound `CCOc1ccc(OC2CN(c3ccc([C@H](C)NC(=O)CC)cc3)C2)cc1` [Example 1.2], the pIC50 is 6.82.
As to `CCOc1ccc(OC2CN(c3ccc([C@H](C)NC(=O)COC)cc3)C2)cc1` [Example 1.3], the pIC50 is 5.98.
Take `CCOc1ccc(OC2CN(c3ccc([C@H](C)NC(=O)C(C)C)cc3)C2)cc1` [Example 1.5]: the pIC50 is 6.92.
With `CCCC(=O)N[C@@H](C)c1ccc(N2CC(Oc3ccc(OCC)cc3)C2)cc1` [Example 1.6], the negative logarithm of the IC50 (pIC50) is 6.55.
Still for that read-out and setting: then `CCOc1ccc(OC2CN(c3ccc([C@H](C)NC(=O)C4CCC4)cc3)C2)cc1` [Example 1.7], with 6.77; and `CCOc1ccc(OC2CN(c3ccc([C@H](C)NC(=O)C4CCCC4)cc3)C2)cc1` [Example 1.8], with 6.26.
On the same count and under the same terms, the value for `CCOc1ccc(OC2CN(c3ccc([C@H](C)NC(=O)C4CC4C)cc3)C2)cc1` (stereo partly shown) [Example 1.9] was 6.34.
For the compound `CCOc1ccc(OC2CN(c3ccc([C@H](C)NC(=O)C4(O)CC4)cc3)C2)cc1` [Example 1.10], the pIC50 is 5.50.
For `CCOc1ccc(OC2CN(c3ccc([C@H](C)NC(=O)c4cn[nH]c4)cc3)C2)cc1` [Example 1.11], the pIC50 is 6.68.
Same read-out and setting: then `CCOc1ccc(OC2CN(c3ccc([C@H](C)NC(=O)C4(C)CC4)cc3)C2)cc1` [Example 1.12], with 6.64.
In the case of `CCOc1ccc(OC2CN(c3ccc([C@H](C)NC(=O)Cn4ccnc4)cc3)C2)cc1` [Example 1.13], the negative-log IC50 (pIC50) was 6.32.
Regarding `CCOc1ccc(OC2CN(c3ccc([C@H](C)NC(=O)c4conc4C)cc3)C2)cc1` [Example 1.14], the pIC50 is 7.15.
On to `CCOc1ccc(OC2CN(c3ccc([C@H](C)NC(=O)CC4CC4)cc3)C2)cc1` [Example 1.15], for which the pIC50 was 5.59.
`CCOc1ccc(OC2CN(c3ccc([C@H](C)NC(=O)C(C)(C)F)cc3)C2)cc1` [Example 1.17]: the pIC50 was 6.55.
On to `CCOc1ccc(OC2CN(c3ccc([C@H](C)NC(=O)C4(C#N)CC4)cc3)C2)cc1` [Example 1.18], for which the negative logarithm of the IC50 (pIC50) is 6.47.
For `CCOc1ccc(OC2CN(c3ccc([C@H](C)NC(=O)C4CC(OC)C4)cc3)C2)cc1` (stereo partly shown) [Example 1.19], the pIC50 was 6.23.
`CCOc1ccc(OC2CN(c3ccc([C@H](C)NC(=O)c4cocn4)cc3)C2)cc1` [Example 1.20]: the pIC50 was 6.48.
As to `CCOc1ccc(OC2CN(c3ccc([C@H](C)NC(=O)c4cnn(C)c4)cc3)C2)cc1` [Example 1.21], the pIC50 is 6.32.
As for `CCOc1ccc(OC2CN(c3ccc([C@H](C)NC(=O)Cc4cncnc4)cc3)C2)cc1` [Example 1.22], the pIC50 was 6.35.
Regarding `CCOc1ccc(OC2CN(c3ccc([C@H](C)NC(=O)C4(C)COC4)cc3)C2)cc1` [Example 1.23], the pIC50 was 5.83.
Consider `CCOc1ccc(OC2CN(c3ccc([C@H](C)NC(=O)C4CC(F)C4)cc3)C2)cc1` (stereo partly shown) [Example 1.24], for which the negative-log IC50 (pIC50) is 6.66.
Regarding `CCOc1ccc(OC2CN(c3ccc([C@H](C)NC(=O)c4ccncc4)cc3)C2)cc1` [Example 1.26], the pIC50 was 5.91.
For the compound `CCOc1ccc(OC2CN(c3ccc([C@H](C)NC(=O)c4cccnc4)cc3)C2)cc1` [Example 1.27], the pIC50 was 5.71.
With `CCOc1ccc(OC2CN(c3ccc([C@H](C)NC(=O)CO)cc3)C2)cc1` [Example 1.28], the pIC50 is 6.00.
`CCOc1ccc(OC2CN(c3ccc([C@H](C)NC(=O)c4c[nH]cn4)cc3)C2)cc1` [Example 1.29]: the pIC50 was 5.94.
With `CCOc1ccc(OC2CN(c3ccc([C@H](C)NC(=O)c4c(C)noc4N)cc3)C2)cc1` [Example 1.30], the pIC50 was 6.13.
With `CCOc1ccc(OC2CN(c3ccc([C@H](C)NC(=O)c4cc(C)nn4C)cc3)C2)cc1` [Example 1.31], the pIC50 was 5.76.
Regarding `CCOc1ccc(OC2CN(c3ccc([C@H](C)NC(=O)c4sc(NC(C)=O)nc4C)cc3)C2)cc1` [Example 1.32], the pIC50 was 7.30.
Consider `CCOc1ccc(OC2CN(c3ccc([C@H](C)NC(=O)c4cn(C)cn4)cc3)C2)cc1` [Example 1.33], for which the pIC50 was 5.60.
For the compound `CCOc1ccc(OC2CN(c3ccc([C@H](C)NC(=O)c4cncn4C)cc3)C2)cc1` [Example 1.34], the pIC50 was 5.69.
Regarding `CCOc1ccc(OC2CN(c3ccc([C@H](C)NC(=O)c4ocnc4C)cc3)C2)cc1` [Example 1.35], the pIC50 was 6.40.
Regarding `CCOc1ccc(OC2CN(c3ccc([C@H](C)NC(=O)c4ccon4)cc3)C2)cc1` [Example 1.36], the pIC50 was 5.79.
Consider `CCOc1ccc(OC2CN(c3ccc([C@H](C)NC(=O)c4cnco4)cc3)C2)cc1` [Example 1.37], for which the pIC50 was 6.77.
The same measure, in the same setting: then `CCOc1ccc(OC2CN(c3ccc([C@H](C)NC(=O)c4scnc4C)cc3)C2)cc1` [Example 1.38], with 6.11.
As for `CCOc1ccc(OC2CN(c3ccc([C@H](C)NC(=O)c4oc(C)nc4C)cc3)C2)cc1` [Example 1.39], the pIC50 was 5.65.
As for `CCOc1ccc(OC2CN(c3ccc([C@H](C)NC(=O)C(C)(C)OC)cc3)C2)cc1` [Example 1.40], the pIC50 is 5.19.
The same measure, in the same setting: the value for `CCOc1ccc(OC2CN(c3ccc([C@H](C)NC(=O)c4cnc(C)s4)cc3)C2)cc1` [Example 1.41] was 5.97.
For `CCOc1ccc(OC2CN(c3ccc([C@H](C)NC(=O)c4occc4C)cc3)C2)cc1` [Example 1.42], the pIC50 was 5.77.
With `CCOc1ccc(OC2CN(c3ccc([C@H](C)NC(=O)C(C)F)cc3)C2)cc1` (stereo partly shown) [Example 1.43], the pIC50 was 6.49.
With `CCOc1ccc(OC2CN(c3ccc([C@H](C)NC(=O)c4csc(NC(C)=O)n4)cc3)C2)cc1` [Example 1.44], the negative-log IC50 (pIC50) was 6.21.
With `CCOc1ccc(OC2CN(c3ccc([C@H](C)NC(=O)c4cc(=O)[nH]cn4)cc3)C2)cc1` [Example 1.45], the pIC50 is 5.70.
For the compound `CCOc1ccc(OC2CN(c3ccc([C@H](C)NC(=O)C4CC(=O)N(C)C4)cc3)C2)cc1` (stereo partly shown) [Example 1.46], the negative-log IC50 (pIC50) is 5.76.
On the same count and under the same terms, then `CCOc1ccc(OC2CN(c3ccc([C@H](C)NC(=O)Cc4c[nH]cn4)cc3)C2)cc1` [Example 1.47], with 5.88.
With `CCOc1ccc(OC2CN(c3ccc([C@H](C)NC(=O)c4ccc5c(c4)nnn5C)cc3)C2)cc1` [Example 1.48], the pIC50 is 5.47.
On to `CCOc1ccc(OC2CN(c3ccc([C@H](C)NC(=O)Cc4cc[nH]c4)cc3)C2)cc1` [Example 1.49], for which the pIC50 was 5.83.
On to `CCOc1ccc(OC2CN(c3ccc([C@H](C)NC(=O)c4nc(C)sc4C)cc3)C2)cc1` [Example 1.50], for which the pIC50 is 5.97.
For `CCOc1ccc(OC2CN(c3ccc([C@H](C)NC(=O)C4CC=CC4)cc3)C2)cc1` [Example 1.51], the pIC50 is 7.15.
As to `CCOc1ccc(OC2CN(c3ccc([C@H](C)NC(=O)Cc4cccnc4)cc3)C2)cc1` [Example 1.52], the pIC50 is 6.01.
For the compound `CCOc1ccc(OC2CN(c3ccc([C@H](C)NC(=O)C(C)(F)F)cc3)C2)cc1` [Example 1.53], the negative logarithm of the IC50 (pIC50) was 7.15.
Take `CCOc1ccc(OC2CN(c3ccc([C@H](C)NC(=O)Cc4cc(C)no4)cc3)C2)cc1` [Example 1.54]: the negative logarithm of the IC50 (pIC50) was 6.27.
Still for that read-out and setting: the value for `CCOc1ccc(OC2CN(c3ccc([C@H](C)NC(=O)CCCNC(C)=O)cc3)C2)cc1` [Example 1.55] was 6.36; that for `CCOc1ccc(OC2CN(c3ccc([C@H](C)NC(=O)C4CNC(=O)C4)cc3)C2)cc1` (stereo partly shown) [Example 1.57] was 5.89.
For `CCOc1ccc(OC2CN(c3ccc([C@H](C)NC(=O)c4cnc(NC)nc4)cc3)C2)cc1` [Example 1.58], the pIC50 is 5.41.
On the same count and under the same terms, then `CCOc1ccc(OC2CN(c3ccc([C@H](C)NC(=O)C4CCC(=O)N4)cc3)C2)cc1` (stereo partly shown) [Example 1.59], with 5.69; and `CCOc1ccc(OC2CN(c3ccc([C@H](C)NC(=O)c4cnc(NC(C)=O)s4)cc3)C2)cc1` [Example 1.60], with 6.49.
In the case of `CCOc1ccc(OC2CN(c3ccc([C@H](C)NC(=O)Cn4cncn4)cc3)C2)cc1` [Example 1.61], the pIC50 was 5.84.

Staying with this test, now noted: IC50, ACC2 assay; human ACC2 construct lacking 128 N-terminal amino acids; 25° C., 340 nm, 15 minutes.
In turn, `CCOc1ccc(OC2CN(c3ccc([C@H](C)NC(=O)CF)cc3)C2)cc1` [Example 1.16] showed a pIC50 of 6.96.

Usually pIC50 stands for the negative decadic logarithm of the IC50, by convention in mol/L.
